EC50 data for 34 molecules are collected here from patent publication US12358921B2, “Antiviral heterocyclic compounds” (priority 2022, dated 2025).

For this experiment, the system named is hMPV A2 TN/94-49. The experiment in a line: HMPV antiviral assay Method 2 (LLC-MK2 cells with CP-100-356, ATP-Lite). Type of experiment: cell-based. As to conditions: hMPV A2 TN/94-49, LLC-MK2 cells, 4 μM CP-100-356, Method 2. The protocol:
In vitro HMPV antiviral activity was evaluated using the clinical isolate A2 strain TN 94-49 (obtained from Dr. John Williams, Vanderbilt University, Tennessee) and LLC-MK2 cells (Millipore Sigma CB_85062804), an immortalized kidney epithelial cell line from Macaca mulatta. Compounds were resuspended in dimethyl sulfoxide (DMSO) at 10 mM, serially diluted and added to a 384-well source plate. Subsequently, the compounds were diluted and transferred onto 384-well assay plates using the Echo-650 automated liquid handling system (Beckman Coulter, Indiana). The test compounds were assessed in duplicate at a top concentration of 200 nM followed by 2.5-fold serial dilutions to give a total of 10 concentration points. DMSO control wells were also included on the assay plates and were either infected or not, acting as positive and negative controls. A2 TN 94-49 virus infections were performed in-suspension with LLC-MK2 cells. The cells were washed twice with PBS and removed from the cell-culture flask with 0.25% trypsin-EDTA (Thermo Fisher Scientific, MA). The trypsin-EDTA was inactivated by resuspending in 2% fetal bovine serum (FBS) and OptiMEM (ThermoFisher Scientific, MA) containing 1% antibiotic-antimycotic. Cells were pelleted by centrifuging for 5 minutes at 800 rpm, the supernatant was removed, and cells were re-suspended and washed in PBS plus 100 μg/mL CaCl2). This step was performed twice. Cells were then re-suspended in serum-free (SF)-OptiMEM containing 4 μg/mL TPCK-Trypsin (Sigma Aldrich, MO), 1% antibiotic-antimycotic (ThermoFisher Scientific, MA), 100 μg/mL CaCl2), and 4 μM of CP-100-356, a P-glycoprotein inhibitor. Cells were counted and seeded at a density of 5,000 cells/well, 12.5 μL/well. Virus infections were done at a multiplicity of infection (MOI) of 0.16 with 12.5 μL added per well. Virus infections were performed in infection media which contained SF-OptiMEM, 100 μg/mL CaCl2) and 1% antibiotic-antimycotic. HMPV viral stocks are suspended in infection media+5% glycerol, thus an equal volume of infection media+5% glycerol was added to uninfected wells to equalize the final % glycerol across all wells of the assay plate. The final concentration of TPCK-trypsin was 2 μg/mL. The final concentration of CP-100-356 was 2 μM. The assay plates were incubated at 37° C., 5% CO2 for 7 days. After 7 days incubation, 12.5 μL of ATP-Lite (PerkinElmer, MA) was added to each well and the raw luminescence values were determined using the Envision 2104 (Perkin Elmer, MA). The average of the raw luminescence values for the cells and virus only positive control wells was subtracted from all conditions tested and the percent cell health was determined by dividing these values by the average of the cells only negative control wells. EC50 values were then calculated by non-linear regression using a four-parameter curve logistic equation. The curve fit model employed was XLFit Dose Response One Site Model 200: y=(A+(B/(1+((x/C)^D)))), where A is the minimum y value, B is the maximum y value, C is the log EC50value, and D is the slope factor.
The term EC50 denotes the concentration at which the effect is half-maximal. A low value points to a more potent agent. `C[C@]1(C(N)=O)COc2c1cc([C@@](O)(CNC(=O)c1ccc3nc(Cc4ccccc4)oc3c1)c1ccccc1)nc2-c1cc(Cl)c(F)cc1F` [Example 230] displayed a 50% effective concentration (EC50) of more than 200 nM.
As for `COc1cc(C(=O)NCC(O)(c2ccc(F)cn2)c2cc3c(c(-c4cc(Cl)c(F)cc4F)n2)OC[C@]3(C)C(N)=O)cc2cn(C3CC3)nc12` (stereo partly shown) [Example 210], the figure is less than 200 nM; as for `COc1cc(C(=O)NC[C@@](O)(c2ccccc2)c2cc3c(c(-c4cc(C(F)(F)F)ccc4F)n2)OC[C@]3(C)C(N)=O)cc2oc(C3CC3)nc12` [Example 332], less than 200 nM.
As for `C[C@]1(C(N)=O)COc2c1cc([C@@](O)(CNC(=O)c1cc(OC3CC3)c3ncc(Cl)cc3c1)c1cccc(F)c1)nc2-c1cccc(Cl)c1Cl` [Example 334], the figure is less than 200 nM; as for `C[C@]1(C(N)=O)COc2c1cc([C@@](O)(CNC(=O)c1ccc3nc(C4CC4)oc3c1)c1ccccc1)nc2-c1ccc2c(c1)OC(F)(F)O2` [Example 199], more than 200 nM.
Next, `COc1cc(C(=O)NC[C@@](O)(c2ccccc2)c2cc3c(c(-c4ccc5c(c4)OC(F)(F)O5)n2)OC[C@]3(C)C(N)=O)cc2oc(C)nc12` [Example 201]: less than 200 nM; `C[C@]1(C(N)=O)COc2c1cc([C@@](O)(CNC(=O)c1ccc3nc(C4CCC4)oc3c1)c1ccccc1)nc2-c1cc(Cl)c(F)cc1F` [Example 221]: more than 200 nM.
As for `COc1cc([C@](O)(CNC(=O)c2cc(OC)c3nn(C4CC4)cc3c2)c2cc3c(c(-c4cccc(Cl)c4Cl)n2)OC[C@]3(C)C(N)=O)ccn1` [Example 494], the EC50 is less than 200 nM.
As for `C[C@]1(C(N)=O)COc2c1cc([C@@](O)(CNC(=O)c1ccc3nc(-c4ccccc4)oc3c1)c1ccccc1)nc2-c1cc(Cl)c(F)cc1F` [Example 227], the figure is more than 200 nM.
Next, `C[C@]1(C(N)=O)COc2c1cc([C@@](O)(CNC(=O)c1cc(OC3CC3)n3nc(C4CC4)cc3c1)c1ccccc1)nc2-c1cc(Cl)c(F)cc1F` [Example 191]: less than 200 nM; `C[C@]1(C(N)=O)COc2c1cc([C@@](O)(CNC(=O)c1cc(OC(F)F)c3nc(C4CC4)oc3c1)c1ccccc1)nc2-c1cc(Cl)c(F)cc1F` [Example 216]: less than 200 nM.
As for `CNc1cc([C@](O)(CNC(=O)c2cc(OC)c3nn(C4CC4)cc3c2)c2cc3c(c(-c4cc(Cl)c(F)cc4F)n2)OC[C@]3(C)C(N)=O)ccn1` [Example 490], the figure is less than 200 nM.
On to `COc1cc(OC)c2cc(C(=O)NC[C@@](O)(c3ccccc3)c3cc4c(c(-c5cc(Cl)c(F)cc5F)n3)OC[C@]4(C)C(N)=O)[nH]c2c1` [Example 94], for which the 50% effective concentration (EC50) is more than 200 nM.
As for `COc1cc(C(=O)NCC(O)(c2ccccc2)c2cc3c(c(-c4ccc(F)c(Cl)c4)n2)OC[C@]3(C)C(N)=O)cc2cn(C3(F)CC3)nc12` (stereo partly shown) [Example 362], the figure is less than 200 nM; as for `Cc1nc2c(OC(F)(F)F)cc(C(=O)NC[C@@](O)(c3ccccc3)c3cc4c(c(-c5cc(Cl)c(F)cc5F)n3)OC[C@]4(C)C(N)=O)cc2s1` [Example 188], more than 200 nM; as for `C[C@]1(C(N)=O)COc2c1cc([C@@](O)(CNC(=O)c1ccc3nc(C4CC4)oc3c1)c1ccccc1)nc2-c1cc(C(F)F)c(F)cc1F` [Example 311], less than 200 nM.
As for `COc1cc(C(=O)NCC(O)(c2ccccc2)c2cc3c(c(-c4ccc(F)cc4)n2)OC[C@]3(C)C(N)=O)cc2cn(C3(F)CC3)nc12` (stereo partly shown) [Example 361], the figure is more than 200 nM.
Next, `C[C@]1(C(N)=O)COc2c1cc([C@@](O)(CNC(=O)c1cc(C(F)F)c3nn(C4CC4)cc3c1)c1ccccc1)nc2-c1cc(Cl)c(F)cc1F` [Example 229]: less than 200 nM; `COc1cc(F)c(F)cc1-c1nc([C@@](O)(CNC(=O)c2cc(OC)c3nn(C4(F)CC4)cc3c2)c2ccccc2)cc2c1OC[C@]2(C)C(N)=O` [Example 365]: less than 200 nM.
Take `COc1cc(C(=O)NC[C@@](O)(c2ccccc2)c2cc3c(c(-c4ccc5c(c4)OC(F)(F)O5)n2)OC[C@]3(C)C(N)=O)cc2oc(C3CC3)nc12` [Example 200]: the EC50 was less than 200 nM.
Next, `C[C@]1(C(N)=O)COc2c1cc([C@@](O)(CNC(=O)c1cc(OC3CC3)c3nc(C4CC4)sc3c1)c1ccccc1)nc2-c1cc(Cl)c(F)cc1F` [Example 190]: more than 200 nM; `C[C@]1(C(N)=O)COc2c1cc([C@@](O)(CNC(=O)c1cc(OC3CC3)c3nc(C4CC4)oc3c1)c1ccccc1)nc2-c1cc(Cl)c(F)cc1F` [Example 233]: less than 200 nM.
Next, `COc1cccc(-c2nc([C@@](O)(CNC(=O)c3cc(OC)c4nn(C5(F)CC5)cc4c3)c3ccccc3)cc3c2OC[C@]3(C)C(N)=O)c1Cl` [Example 374]: less than 200 nM.
Next, `C[C@]1(C(N)=O)COc2c1cc([C@@](O)(CNC(=O)c1ccc3nc(C4CC4)oc3c1)c1cccc(F)c1)nc2-c1ccc(F)c(Cl)c1Cl` [Example 312]: less than 200 nM; `C[C@]1(C(N)=O)COc2c1cc([C@@](O)(CNC(=O)c1cc(OC(F)F)c3ncc(Cl)cc3c1)c1ccccc1)nc2-c1cc(Cl)c(F)cc1F` [Example 231]: less than 200 nM; `COc1cc(C(=O)NC[C@@](O)(c2cccc(C(C)O)c2)c2cc3c(c(-c4cccc(Cl)c4Cl)n2)OC[C@]3(C)C(N)=O)cc2cn(C3CC3)nc12` (stereo partly shown) [Example 495]: more than 200 nM.
In turn, `COc1cc(C(=O)NC[C@](O)(c2cc3c(c(-c4cc(Cl)c(F)cc4F)n2)OC[C@]3(C)C(N)=O)c2ccnn2C)cc2cn(C3CC3)nc12` [Example 481] displayed a concentration for a half-maximal effect (EC50) of less than 200 nM.
Next, `C[C@]1(C(N)=O)COc2c1cc([C@@](O)(CNC(=O)c1cc(Cl)c3nc(C4CC4)oc3c1)c1ccccc1)nc2-c1cc(Cl)c(F)cc1F` [Example 232]: less than 200 nM; `C[C@]1(C(N)=O)COc2c1cc([C@@](O)(CNC(=O)c1cc(C(F)(F)F)c3nn(C4CC4)cc3c1)c1ccccc1)nc2-c1cc(Cl)c(F)cc1F` [Example 228]: less than 200 nM.
As for `Cc1nc2c(OC3CC3)cc(C(=O)NC[C@@](O)(c3ccccc3)c3cc4c(c(-c5cc(Cl)c(F)cc5F)n3)OC[C@]4(C)C(N)=O)cc2o1` [Example 234], the figure is less than 200 nM; as for `COc1cc([C@](O)(CNC(=O)c2cc(OC)c3nn(C4CC4)cc3c2)c2cc3c(c(-c4cc(Cl)c(F)cc4F)n2)OC[C@]3(C)C(N)=O)cc(F)n1` [Example 503], less than 200 nM.
Next, `COc1cc(C(=O)NC[C@@](O)(c2cccc(F)c2)c2cc3c(c(-c4cccc(Cl)c4Cl)n2)OC[C@]3(C)C(N)=O)cc2cc(Cl)cnc12` [Example 333]: less than 200 nM.
Molecule `C[C@]1(C(N)=O)COc2c1cc([C@@](O)(CNC(=O)c1cc(OC3CC3)c3ncc(Cl)cc3c1)c1ccccc1)nc2-c1cc(C(F)(F)F)c(F)cc1F` [Example 315] displayed an EC50 of less than 200 nM.
As for `COc1cc(C(=O)NC[C@@](O)(c2ccnc(F)c2)c2cc3c(c(-c4cccc(Cl)c4Cl)n2)OC[C@]3(C)C(N)=O)cc2cn(C3CC3)nc12` [Example 492], the figure is less than 200 nM.
